From PubChem BioAssay (NCI)
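Cells were grown in 96-well plates and exposed to each compound for 48 hours at five concentrations; endpoints were interpolated linearly between bracketing concentrations, or set to the highest concentration if not reached. TGI denotes the concentration required for complete inhibition of growth.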

What was measured:
Assay in all cases: NCI tumour cell line growth inhibition, 48 h
[1] = test system: HCC-2998 colon
[2] = test system: TK-10 renal
[3] = test system: SF-268 CNS
[4] = test system: OVCAR-5 ovarian
[5] = test system: MOLT-4 leukemia
[6] = test system: IGROV1 ovarian
[7] = test system: HOP-92 NSCLC
[8] = test system: A498 renal
[9] = test system: SF-539 CNS
[10] = test system: K-562 leukemia
[11] = test system: KM12 colon
[12] = test system: SNB-19 CNS
[13] = test system: A549 NSCLC
[14] = test system: SNB-75 CNS
[15] = test system: SN12C renal
[16] = test system: HOP-62 NSCLC
[17] = test system: U251 CNS
[18] = test system: SK-MEL-5 melanoma
[19] = test system: HL-60(TB) leukemia
[20] = test system: MDA-MB-435

Row | SMILES | TGI [1] | TGI [2] | TGI [3] | TGI [4] | TGI [5] | TGI [6] | TGI [7] | TGI [8] | TGI [9] | TGI [10] | TGI [11] | TGI [12] | TGI [13] | TGI [14] | TGI [15] | TGI [16] | TGI [17] | TGI [18] | TGI [19] | TGI [20]
1 | O=C1C(Cl)=C(OCCCCl)C(=O)c2c(O)ccc(O)c21 | 30.2 µM | 9.48 µM | 8.61 µM | 26.4 µM | 1.86 µM | 13.1 µM | 3.28 µM | 28.5 µM | 8.97 µM | 1.7 µM | 29.1 µM | 32.5 µM | 14.6 µM | 3.91 µM | 5.1 µM | 22 µM | 13.8 µM | 3.33 µM | – | –
2 | Cc1c(/C=N/NC(=O)c2cc(Br)cc(Br)c2O)c(=O)n(-c2ccccc2)n1C | > 100 µM | > 100 µM | > 100 µM | > 100 µM | > 100 µM | – | > 100 µM | > 100 µM | > 100 µM | > 100 µM | > 100 µM | > 100 µM | > 100 µM | > 100 µM | > 100 µM | > 100 µM | > 100 µM | > 100 µM | 5.97 µM | –
3 | COc1cccc(N=Cc2cc3cc(Br)ccc3nc2Cl)c1 | > 50 µM | – | > 50 µM | > 50 µM | > 50 µM | > 50 µM | > 50 µM | – | > 50 µM | > 50 µM | > 50 µM | > 50 µM | > 50 µM | > 50 µM | > 50 µM | > 50 µM | – | > 50 µM | > 50 µM | > 50 µM
4 | Cn1cnc(CCc2ccccc2)n1 | – | > 100 µM | > 100 µM | > 100 µM | > 100 µM | > 100 µM | > 100 µM | > 100 µM | > 100 µM | > 100 µM | > 100 µM | – | > 100 µM | > 100 µM | > 100 µM | > 100 µM | > 100 µM | > 100 µM | > 100 µM | –
5 | C[n+]1c2ccccc2c(C(=O)Nc2ccc(S(=O)(=O)Nc3ccnn3-c3ccccc3)cc2)c2ccccc21 | > 100 µM | > 100 µM | > 100 µM | > 100 µM | > 100 µM | > 100 µM | – | – | > 100 µM | > 100 µM | > 100 µM | > 100 µM | > 100 µM | > 100 µM | > 100 µM | > 100 µM | > 100 µM | > 100 µM | – | > 100 µM
6 | O=C1C(Br)=CC2(C=C1Br)CCNC1=C2C(=O)c2ccccc2C1=O | – | 83.4 µM | 63.3 µM | – | 22.7 µM | 83.6 µM | – | – | – | 48.4 µM | 23.4 µM | – | > 100 µM | > 100 µM | 19.6 µM | 30.7 µM | – | 28.5 µM | 13.3 µM | –
7 | Cc1csc(=S)n1OC(=O)NC1CCCCC1 | > 100 µM | > 100 µM | > 100 µM | – | > 29.4 µM | > 100 µM | > 100 µM | > 100 µM | > 100 µM | > 100 µM | > 100 µM | > 100 µM | > 100 µM | > 100 µM | > 100 µM | > 100 µM | > 100 µM | > 100 µM | 56.5 µM | –
8 | COc1cc(OC)c2c(c1)C(=O)C(CC(C)O)=CC2=O (centres undefined) | 43.7 µM | 34.1 µM | 33 µM | 32.3 µM | 41.8 µM | 34.2 µM | 23.3 µM | 31.7 µM | 32.5 µM | 78.8 µM | 35 µM | 31.6 µM | 37.1 µM | 41 µM | 32.6 µM | 33.6 µM | 31.8 µM | 28 µM | 21.8 µM | –
9 | CC(=O)N1C(Nc2ccccn2)CCN1c1ccccc1 (centres undefined) | > 10 µM | > 10 µM | > 10 µM | > 10 µM | > 10 µM | > 10 µM | > 10 µM | – | > 10 µM | > 10 µM | – | > 10 µM | > 10 µM | > 10 µM | > 10 µM | > 10 µM | – | > 10 µM | > 10 µM | > 10 µM
10 | CCOC(=O)C(=[N+]=[N-])C(=O)C1(C(=O)OCC)CCN(C(=O)c2ccccc2)C1=O (centres undefined) | – | > 100 µM | > 100 µM | > 100 µM | > 100 µM | > 100 µM | > 100 µM | > 100 µM | > 100 µM | – | > 100 µM | > 100 µM | > 100 µM | > 100 µM | > 100 µM | > 100 µM | – | > 100 µM | > 100 µM | –
